The subject of assay [1] is PC-12. Put plainly: Induction of neurite outgrowth in rat PC12D cells at 1 to 30 uM in absence of nerve growth factor by microscopy. The format is functional, cell-based.
Assay [2] concerns PC-12. Put plainly: Enhancement of nerve growth factor-stimulated neurite outgrowth in rat PC12D cells at > 10 uM by microscopy. The format is functional, cell-based.

Results on 1 compound are retold here after ChEMBL document CHEMBL1150868, “Verbenachalcone, a novel dimeric dihydrochalcone with potentiating activity on nerve growth factor-action from Verbena littoralis” (J Nat Prod, 2001).

Calls of active or inactive are those of the source. The calls are words filed in the database; no cut-off is given here.

With `COc1cc(CCC(=O)c2ccc(O)cc2O)ccc1Oc1cc(CCC(=O)c2ccc(O)cc2O)ccc1O`, in assay [1], the outcome was inactive. The result in assay [2] was Active.
